In a melting point compilation (Tetko et al.; mined from patent text by program, amines drawn as free bases though some values may be those of a salt):

Row | melting point | SMILES
1 | 180 to 182 °C | CN1CCN(c2ccc(Nc3nc(N)c(C(=O)c4c(Cl)cc(Br)c(N)c4Cl)s3)cc2)CC1
2 | 181 to 185 °C | N#Cc1c(N2CCN(C(=O)c3ccc(C(F)(F)F)cc3)CC2)c2ccccc2n(Cc2ccc(F)cc2)c1=O
3 | 108 to 109 °C | CC(=O)OC(CN(Cc1ccccc1)Cc1ccccc1)c1cc(C#N)c2c(c1)CCN2C(C)=O (centres undefined)
4 | 218 to 220 °C | C=Cc1cncc(-c2cc(NC(=O)Cc3ccc4ccccc4c3)n[nH]2)c1
5 | 170 to 175 °C | CCN(CC)CCc1cccc(Nc2ncc3c(n2)N(c2cccc(C(N)=O)c2)C(=O)N(c2ccc(OC)cc2)C3C)c1 (centres undefined)
6 | 92 to 96 °C | O=C1C(=O)c2ccc(Cl)cc2C2=C1SCC1(CCN(CC(O)Cc3ccccc3)CC1)O2 (centres undefined)
7 | 193 to 194 °C | Cc1cc2nc(-c3cc(C(F)(F)F)nn3-c3ccc(S(C)(=O)=O)cc3)sc2cc1F
8 | 130 °C | CCN(CC)C(=O)c1cc(-c2ccc(Cl)cc2)nc2ccc(Cl)cc12
9 | 155 to 160 °C | O=C1NCC=Cc2cc[nH]c21
10 | 154 to 157 °C | FC(F)(F)c1ccc2nc(N3CCN(c4ncccc4C(F)(F)F)CC3)n(Cc3ccccc3)c2c1
11 | 232 to 234 °C | O=C1C(c2cccc(-c3ccccc3)c2)n2cncc2CN1Cc1ccccc1 (centres undefined)
12 | 124 to 126 °C | CCCCCCCCCCCCCCOc1ccc(C(=O)Nc2ccccc2)cc1
13 | 150 °C | COc1cc(Nc2nccc(-c3ccc[nH]3)n2)cc(OC)c1OC
14 | 271 °C | Cc1ccc(NS(=O)(=O)c2ccc(-c3cnc4[nH]c(CCC5CCCCC(=S)N5)nc4c3)cc2)c(F)c1 (centres undefined)
15 | 162 to 164 °C | CCOC(=O)c1nc(N)sc1C(C)=O
16 | 250 to 251 °C | Cc1cccc(N2CCN(c3cc[nH]c(=S)c3C#N)CC2C)c1 (centres undefined)
17 | 84 to 85 °C | COc1ccccc1N1CCN(CC2=Cc3ccccc3CC2)CC1
18 | 166 to 167 °C | O=C(c1ccc([N+](=O)[O-])cc1)N1CCSC1=S
19 | 50 to 52 °C | CCCOc1cc(C)c(C(=O)O)c(OCc2ccc(OCCc3nc(-c4ccccc4)oc3C)cc2)c1
20 | 99 to 101 °C | CC1(C)CC(c2ccccn2)c2ccccc2O1 (centres undefined)
21 | 93.5 to 94.5 °C | COCOc1cc(CCC(=O)c2c(OC)cc(OC)c(CCC(C)C)c2O)ccc1OC
22 | 55 to 56 °C | CC1(C)C(=O)Oc2ccc(Br)cc21
23 | 174 to 175 °C | CC(=O)c1cc2c(cn1)[nH]c1ccccc12
24 | 163 to 164 °C | Cc1nccn1-c1nc(-c2ccc(Cl)cc2)c(CCC#N)o1

Row | melting point | SMILES
25 | 149 to 152 °C | CCCCN(CCCC)Cc1cc(NC(=O)Nc2c(C(C)C)cccc2C(C)C)n(Cc2ccccc2)n1
26 | 98 to 99 °C | CCCc1c(S)ccc2c(=O)c(C(=O)OC)coc12
27 | 213 to 214 °C | COc1cc(OC)c2c(=O)[nH]c(-c3cc(C)c(OCCN4CCN(C(C)=O)CC4)c(C)c3)nc2c1
28 | 120 to 122 °C | COC(=O)n1c(Br)c(Br)c(C#N)c1Br
29 | > 260 °C | Cn1c(-c2ccc(Cl)cc2)cc2cc(C(=O)O)ccc21
30 | 142 °C | CCCCc1c(C(=O)c2ccc(OC)cc2)[nH]c2ccc([N+](=O)[O-])cc12
31 | 134 to 136 °C | O=C(Cn1c2c(c3c4c(ccc31)OCC=C4)CCN(Cc1ccccc1)CC2)Nc1ccccc1
32 | 139 to 142 °C | CC(=O)N1CCC(C(=NN)c2ccc(F)cc2F)CC1
33 | 124 to 125 °C | Cc1cccc(Cl)c1Nc1ccccc1CC(=O)O
34 | 185 to 186 °C | O=C(Nc1ccc([N+](=O)[O-])cc1)N[C@H]1C[C@H](C(=O)O)Nc2cc(Cl)cc(Cl)c21 (relative stereo)
35 | 167 to 169 °C | CC(=CC(=O)O)c1ccc([N+](=O)[O-])cc1
36 | 156 to 157 °C | CSc1c(CC(=O)O)ccc2c3ccccc3n(Cc3ccc(F)cc3)c12
37 | 120 to 121 °C | COc1ccc(CC(=NNS(=O)(=O)c2ccc(C)cc2)c2cc(OC)cc(OC)c2)cc1
38 | 230 °C | Cc1c(C(=O)NC2(C(=O)O)Cc3cccc(Br)c3C2)oc2cc(-c3ccc(Cl)cc3)ccc12 (centres undefined)
39 | 63.5 to 65.5 °C | CCN(CC)C(=O)c1c(C=O)cccc1[Si](C)(C)C
40 | 62 to 63.5 °C | COc1ccc(C(C)CC(=O)N2C(=O)OCC2C(C)C)cc1 (centres undefined)
41 | > 260 °C | Cc1nc2ccccc2n1Cc1cc([N+](=O)[O-])ccc1O
42 | 138 °C | O=C(O)CC1(c2ccc(Cl)cc2)Oc2ccccc2O1
43 | 146 to 148 °C | Nc1cc(OCC2CCCCO2)c(C(=O)O)cc1Cl (centres undefined)
44 | 110 to 111 °C | O=c1occc2ccc(Cl)cc12
45 | 129 to 130 °C | COc1ccc(-c2cc(CN3CCN(C)CC3)c(=O)n(Cc3ccc(Cl)cc3)n2)cc1F
46 | 102 to 103 °C | COc1ccc(C2=NN(C3CCCCCC3)C(=O)[C@H]3CC=CC[C@@H]23)cc1OCC1CC1 (relative stereo)
47 | 97 to 99 °C | O=C(Nc1cccnc1Nc1ccc(CCNC[C@H](O)COc2ccc(O)cc2)cc1)c1ccccc1
48 | 212 to 213 °C | Cc1nnc(-c2ccc3ncn(-c4cccc(C(F)(F)F)c4)c3c2)o1

Row | melting point | SMILES
49 | 135 to 138 °C | Cn1cc(C(=O)NCc2ccc(Cl)cc2)c(=O)c2cc(C(C)(C)CCO)ccc21
50 | 119 to 121 °C | CCSCc1cc(O)nc(N(C)C)n1
51 | 141 to 143 °C | Cn1cc(Br)cc(Nc2ccc(N3CCN(CCF)CC3)cn2)c1=O
52 | 195 to 198 °C | CNC(=O)Nc1sc2nc(C)ccc2c1C(=O)N1CCC(N2CCCC3(CCN(C(C)C)C3=O)C2)CC1 (centres undefined)
53 | 147 to 148 °C | COc1cccc(N2CCN(C(=O)[C@](C)(C#N)[C@H](c3ccccc3OC)c3cccc4ccccc34)CC2)c1
54 | 135 to 137 °C | Cc1ccc(NC(=O)NCC2(c3ccccc3)CCCCC2)cc1
55 | 167 to 168 °C | Cc1cc2c3c(ccn3-c3ccccc3C(N3CCN(C)CC3)=N2)c1
56 | 140 to 144 °C | CC1(O)CCN(C(=O)C(c2ccccc2)n2cnc3[nH]ncc3c2=S)CC1 (centres undefined)
57 | 182 to 183 °C | O=C(O)c1cccc(-c2ccn(-c3ccc(OC(F)F)cc3)n2)c1
58 | 158 to 159 °C | O=C(O)COc1ccc(SCc2ccc(-c3ccc(C(F)(F)F)cc3)cc2)c2c1CCC2
59 | 162 to 164 °C | Cc1ccccc1-c1cc(-c2ccccc2C(=O)O)on1
60 | 89 °C | O=S(=O)(CC1(c2ccccc2)CO1)c1ccccc1 (centres undefined)
61 | 132 to 134 °C | CCc1cc(C(=O)O)c(OC(C)=O)cc1C
62 | 93 to 94 °C | CN(Cc1ccc(N)cc1)C1CCOCC1
63 | 107 to 110 °C | COc1c(C)c(C)c(OC)c(N)c1N
64 | 119 to 120 °C | O=C(/C=C/[C@@H]1[C@H]2CC(=O)O[C@H]2C[C@H]1OC(=O)c1ccccc1)CCc1ccccc1
65 | 226 to 228 °C | CC(C)(C)c1ccc([C@@H]2C[C@H]3C=C(c4c[nH]c(-c5ccc(F)cc5)c4-c4ccncc4)CCN3C2)cc1
66 | 95 to 96 °C | O=C(Cc1cc(OC(=O)c2ccccc2)no1)OC(c1ccccc1)c1ccccc1
67 | 232 to 234 °C | CCCC(=O)Nc1ccc(C2=NNC(=O)NC2C)cc1 (centres undefined)
68 | 110 to 114 °C | CSCc1cc(=O)c2ccc(OCc3ccccc3)c(C)c2o1
69 | 134 to 135 °C | CC(O)=C(C#N)C(=O)Nc1ccccc1
70 | 179 to 180 °C | CC(=O)Oc1cc2c(c(OC(C)=O)c1)C1CCC3(C)C(=O)CCC3C1CC2 (centres undefined)
71 | 130 to 133 °C | Nc1nc(Cl)cc(NCc2ccccc2F)n1
72 | 40 to 41 °C | CCN(CC)C(=O)c1sc(Cl)nc1C(F)(F)F

Row | melting point | SMILES
73 | 63 to 65 °C | O=C(Cl)c1c(Cl)cc([N+](=O)[O-])cc1Cl
74 | 90 to 91 °C | COc1ccc(C(O)c2sccc2C=O)cc1OC (centres undefined)
75 | 167 to 168 °C | CCCC(=O)c1cnc2ccccc2c1Nc1ccccc1OC
76 | 198 °C | CSc1nc(O)cc(=O)n1C
77 | 195 to 196 °C | CC(=O)Oc1ccc(C(C)(C)C)cc1C1(OC(C)=O)C(=O)c2ccccc2C1=O
78 | 255 to 258 °C | Nc1cccc(C(=O)O)c1S
79 | 140 to 142 °C | CCC(O)(Cn1cncn1)c1ccc(Oc2ccc(Cl)cc2)cc1Cl (centres undefined)
80 | 162 to 164 °C | CC(C)c1c(/C=C/C=O)c(-c2ccccc2)c2c3ccccc3cnn12
81 | 140 to 142 °C | CCOC(=O)C1=C(C)N(C(C)=O)C(c2csc(C)n2)=NC1c1ccccc1 (centres undefined)
82 | 153 to 155 °C | CC(=O)c1c(C)[nH]c(-c2ccccc2)c1N(C)C
83 | 185 °C | CC(c1ccc2c(c1)CCC(=O)N2)n1ccnc1 (centres undefined)
84 | 66 to 68 °C | CC#CCOc1ccc(S(=O)(=O)NC2(C(=O)NO)CCCC2)cc1
85 | 166 to 167 °C | CCOC(=O)C1(C2c3[nH]c4ccc(Cl)cc4c3CCN2C(=O)c2ccno2)CCC1 (centres undefined)
86 | 160 to 161 °C | Cc1cc(C=NO)ccc1C(=O)NCc1ccccn1
87 | 206 to 208 °C | CC(=CN(C)C)C(=O)c1cccc(Cl)c1
88 | 168 to 170 °C | COCCc1nc2c(N)nc3c(c2n1CCOCCN(C)C(=O)Nc1ccccc1)CCCC3
89 | 162 °C | COCCC(=O)OC1(C(=O)COC(C)=O)CCC2C3CC(C)C4=CC(=O)C=CC4(C)C3C(O)CC21C (centres undefined)
90 | 142 to 144 °C | O=[N+]([O-])c1ccc2[nH]cc(Cc3ccc(F)cc3)c2c1
91 | 63 to 64 °C | COc1cc2c(cc1OC)C(=Cc1ccccc1[N+](=O)[O-])C(=O)CC2
92 | 252 to 258 °C | O=C(Nc1ccc(C(=O)N2Cc3cccn3Cc3ccccc32)cc1)c1cccc(F)c1F
93 | 174 to 175 °C | CC(=O)N(c1cccc(Br)c1)c1ncnc2ccc(N3C(=O)C=CC3=O)cc12
94 | 134 to 136 °C | CC1(C)CC(=O)OC1c1ccc(Cl)c([N+](=O)[O-])c1 (centres undefined)

Row | SMILES | melting point
95 | CCOC(=O)Nc1cc(COC(=O)Nc2ccc(N(CCCl)CCCl)cc2)cc(Nc2c3ccccc3nc3ccccc23)c1 | 178 to 182 °C
96 | O=C(Nc1cccc(OC(F)(F)F)c1)Nc1ccccc1CCO | 160 to 161 °C
97 | O=C1c2ccccc2C2(Cc3ccccc3)NCCN12 (centres undefined) | 115 to 117 °C
98 | OC12C=C(C3NCCc4c3[nH]c3ccccc43)C3CCN(CCCCC=CCC1)CC31CC3C=CCCCCN3C21 (centres undefined) | 165 to 168 °C
99 | Nc1nnn(C2CN3CCC2CC3)n1 (centres undefined) | 132 to 134 °C
